# Where two headings read alike, the source gives them in different places.
# Assays:
# MMP-9 = molecular target: T1, MMP-9 (Homo sapiens, UniProt P14780); assay: MMP-9 inhibition assay (fluorogenic peptide substrate); assay type: biochemical; design: remaining enzyme activity (% of control): scale not given here
# T1 construct: purchased Sino Biological 10327-HNAH
# Method: (§1) The inhibition by the small molecule compounds against MMP-2/MMP-9 was measured using an assay probing the enzyme proteolytic activity on the substrate DNP-Pro-Leu-Gly-Met-Trp-Ser-Arg (Enzo Life Sciences, USA). All assays were performed in the assay buffer containing 50 mM Tris, 100 mM NaCl. 5 mM CaCl2, and 0.1% Brij 35, pH 7.5. Human proMMP-2 and proMMP-9 were purchased from Sino biological (Germany). The proMMPs were activated by 1 mM APMA in the assay buffer at 37 °C for 2 h. After activation, MMP-2 was diluted to 6.5 nM of final assay concentration, and MMP-9 was diluted by the buffer to reach 10 nM of final assay concentration. In each well, 49 μl of enzyme solution was incubated with 1 μl of compounds of series of concentration (nM-mM in DMSO) at RT for 30 min. 2 μl of the FRET substrate was added right before the measurement at a final concentration of 25 μM. The rate of hydrolysis was monitored by quantifying the emission at 360 nm (ex: 280 nm). The emission was measured with intervals of the 30 s for 30 min with Synergy H1 Plate Reader (Agilent, USA). The measurements were done in triplicate. […] Then, curves were plotted as a function of the concentration of the inhibitor against the relative enzyme activity. Vmax was derived from the detected […] signal for each concentration and logistic fitting was performed to obtain IC50 values using Origin 2019b (OriginLab).
# MMP-2 = molecular target: T2, MMP-2 (Homo sapiens, UniProt P08253); assay: MMP-2 inhibition assay (fluorogenic peptide substrate); assay type: biochemical; details: for IC50: n.d: not detected
# T2 construct: purchased Sino Biological 10082-HNAH
# T2 sequence (P08253 110-660): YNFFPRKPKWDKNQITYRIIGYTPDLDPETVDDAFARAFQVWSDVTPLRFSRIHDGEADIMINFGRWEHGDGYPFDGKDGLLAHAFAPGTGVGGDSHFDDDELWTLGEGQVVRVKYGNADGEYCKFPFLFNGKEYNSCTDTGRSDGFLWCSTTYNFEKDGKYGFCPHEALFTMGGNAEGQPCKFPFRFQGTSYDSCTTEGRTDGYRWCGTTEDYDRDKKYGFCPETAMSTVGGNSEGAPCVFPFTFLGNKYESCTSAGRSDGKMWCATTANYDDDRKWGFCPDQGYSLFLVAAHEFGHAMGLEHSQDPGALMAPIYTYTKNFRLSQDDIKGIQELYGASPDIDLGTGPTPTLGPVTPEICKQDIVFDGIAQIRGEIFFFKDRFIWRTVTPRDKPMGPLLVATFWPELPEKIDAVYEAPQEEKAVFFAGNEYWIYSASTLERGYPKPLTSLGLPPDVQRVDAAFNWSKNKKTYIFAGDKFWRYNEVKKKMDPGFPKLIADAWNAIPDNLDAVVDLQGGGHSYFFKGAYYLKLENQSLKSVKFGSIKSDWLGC
# Method: as §1
# [1] = MMP-9; concentration 1219.00 µM
# [2] = mean ± SE; n.d: not detected; Fig. 5e prints no unit, µM; read-out: IC50
# [3] = MMP-2, concentration 1219.00 µM
# [4] = mean ± SE, Fig. 5d unit inferred, µM, read-out: IC50
# [5] = Figure 5d; fragment combination joined by linker; n.d: not detected; read-out: MMP9 IC50
# [6] = Figure 5d, fragment combination joined by linker, read-out: MMP2 IC50
# T1 sequence (P14780 107-707 limits assumed): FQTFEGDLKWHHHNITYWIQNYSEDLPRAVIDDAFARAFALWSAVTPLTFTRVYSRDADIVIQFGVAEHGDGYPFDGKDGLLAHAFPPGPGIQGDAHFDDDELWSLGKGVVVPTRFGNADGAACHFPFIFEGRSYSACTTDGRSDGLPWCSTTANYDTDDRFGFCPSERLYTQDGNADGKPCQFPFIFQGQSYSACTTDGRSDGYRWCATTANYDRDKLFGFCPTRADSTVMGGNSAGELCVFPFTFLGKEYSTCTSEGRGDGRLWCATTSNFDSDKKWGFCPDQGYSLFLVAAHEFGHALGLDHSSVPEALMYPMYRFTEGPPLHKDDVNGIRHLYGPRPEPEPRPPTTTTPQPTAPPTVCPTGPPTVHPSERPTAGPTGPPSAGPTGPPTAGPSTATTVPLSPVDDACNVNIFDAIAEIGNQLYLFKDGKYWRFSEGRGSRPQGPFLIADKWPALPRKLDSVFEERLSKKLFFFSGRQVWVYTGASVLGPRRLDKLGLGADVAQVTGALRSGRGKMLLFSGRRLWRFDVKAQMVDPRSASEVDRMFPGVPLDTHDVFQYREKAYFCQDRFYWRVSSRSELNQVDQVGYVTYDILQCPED
remaining enzyme activity (% of control) (MMP-9; MMP-9; concentration 0.08 µM),remaining enzyme activity (% of control) (MMP-9; MMP-9; concentration 0.39 µM),remaining enzyme activity (% of control) (MMP-9; MMP-9; concentration 1.95 µM),remaining enzyme activity (% of control) (MMP-9; MMP-9; concentration 9.75 µM),remaining enzyme activity (% of control) (MMP-9; MMP-9; concentration 48.76 µM),remaining enzyme activity (% of control) (MMP-9; MMP-9; concentration 243.80 µM),remaining enzyme activity (% of control) (MMP-9; [1]),IC50 (MMP-9; [2]),"remaining activity (%) (MMP-2; MMP-2, concentration 0.0156 µM)","remaining activity (%) (MMP-2; MMP-2, concentration 0.08 µM)","remaining activity (%) (MMP-2; MMP-2, concentration 0.39 µM)","remaining activity (%) (MMP-2; MMP-2, concentration 1.95 µM)","remaining activity (%) (MMP-2; MMP-2, concentration 9.75 µM)","remaining activity (%) (MMP-2; MMP-2, concentration 48.76 µM)","remaining activity (%) (MMP-2; MMP-2, concentration 243.80 µM)",remaining activity (%) (MMP-2; [3]),IC50 (MMP-2; [4]),Structure (SMILES),also measured
91.27,99.91,99.61,100.27,85.00,58.59,5.52,312 ± 67.1 µM,96.66,98.78,101.13,92.82,86.30,75.55,47.37,8.68,204 ± 37.3 µM,Cc1cc(=O)[nH]c(-n2nc(C)c(CCC(=O)NCc3c[nH]nn3)c2C)n1 [693+787 Linker 1],–
101.70,95.25,95.00,100.64,91.07,93.01,79.78,–,93.57,87.26,84.29,79.19,76.03,60.10,68.09,72.50,–,O=C(CCCCCCC(=O)NCC12CC3CC(CC(C3)C1)C2)NCc1c[nH]nn1 [66+787 Linker 4],–
–,–,–,–,–,–,–,–,–,–,–,–,–,–,–,–,–,O=C(CSCCNC(=O)c1cncc(O)c1)NCC12CC3CC(CC(C3)C1)C2 [66_828 24],IC50 (MMP-9; [5]): 216 µM; IC50 (MMP-2; [6]): 184 µM
–,–,–,–,–,–,–,–,–,–,–,–,–,–,–,–,–,O=C(CSCCNC(=O)Cn1cnc2c(oc3ccccc32)c1=O)NCc1c[nH]nn1 [182_787 24],IC50 (MMP-9; [5]): 126 µM; IC50 (MMP-2; [6]): 45.9 µM
99.22,101.28,105.60,109.06,90.00,81.70,47.95,–,107.17,100.74,89.54,101.35,92.40,87.86,72.74,41.09,861 ± 97.2 µM,O=C(CNC(=O)NC12CC3CC(CC(C3)C1)C2)NCCSCC(=O)NCc1c[nH]nn1 [66+787 Linker 24],–
104.97,105.32,97.80,93.32,91.82,71.42,29.10,521 ± 36.5 µM,–,–,–,–,–,–,–,–,293 ± 32.6 µM,O=C(CNC(=O)NC12CC3CC(CC(C3)C1)C2)NCCOCCOCCNC(=O)c1cncc(O)c1 [66+828 Linker 10],"remaining activity (%) (MMP-2; MMP-2, concentration 0.07 µM): 92.68; remaining activity (%) (MMP-2; MMP-2, concentration 0.33 µM): 96.27; remaining activity (%) (MMP-2; MMP-2, concentration 1.67 µM): 86.29; remaining activity (%) (MMP-2; MMP-2, concentration 8.34 µM): 96.46; remaining activity (%) (MMP-2; MMP-2, concentration 41.72 µM): 79.41; remaining activity (%) (MMP-2; MMP-2, concentration 208.60 µM): 61.20; remaining activity (%) (MMP-2; MMP-2, concentration 1043.00 µM): 17.26; remaining activity (%) (MMP-2; MMP-2, concentration […]): 100.18"
–,–,89.00,–,–,–,–,–,–,–,–,91.10,–,–,–,–,–,Cc1cc(=O)[nH]c(-n2nc(C)c(CCC(=O)NCCOCCOCCNC(=O)c3cnc4c(c3)nc(O)n4C)c2C)n1 [693+826 Linker 10],"remaining enzyme activity (% of control) (MMP-9; MMP-9; concentration 0.12 µM): 93.04; remaining enzyme activity (% of control) (MMP-9; MMP-9; concentration 0.49 µM): 87.11; remaining enzyme activity (% of control) (MMP-9; MMP-9; concentration 7.81 µM): 87.83; remaining enzyme activity (% of control) (MMP-9; MMP-9; concentration 31.25 µM): 75.00; remaining enzyme activity (% of control) (MMP-9; MMP-9; concentration 125.00 µM): 69.92; remaining enzyme activity (% of control) (MMP-9; MMP-9; concentration 500.00 µM): 55.88; remaining activity (%) (MMP-2; MMP-2, concentration 0.12 µM): 88.40; remaining activity (%) (MMP-2; MMP-2, concentration 0.49 µM): 91.73; remaining activity (%) (MMP-2; MMP-2, concentration 7.81 µM): 90.16; remaining activity (%) (MMP-2; MMP-2, concentration 31.25 µM): 89.04; remaining activity (%) (MMP-2; MMP-2, concentration 125.00 µM): 84.64; remaining activity (%) (MMP-2; MMP-2, concentration 500.00 µM): 68.06"
–,–,–,–,–,–,–,92.1 ± 28.2 µM,–,–,–,–,–,–,–,–,77.1 ± 10 µM,O=C(Cn1cnc2c(oc3ccccc32)c1=O)NCCNC(=O)c1cncc(O)c1 [182+828 Linker 1],"remaining enzyme activity (% of control) (MMP-9; MMP-9, concentration 0.08 µM): 88.36; remaining enzyme activity (% of control) (MMP-9; MMP-9, concentration 0.42 µM): 92.30; remaining enzyme activity (% of control) (MMP-9; MMP-9, concentration 2.10 µM): 86.01; remaining enzyme activity (% of control) (MMP-9; MMP-9, concentration 10.52 µM): 90.65; remaining enzyme activity (% of control) (MMP-9; MMP-9, concentration 52.60 µM): 56.79; remaining enzyme activity (% of control) (MMP-9; MMP-9, concentration 263.00 µM): 22.31; remaining enzyme activity (% of control) (MMP-9; MMP-9, concentration 1315.00 µM): 0.00; remaining activity (%) (MMP-2; MMP-2, concentration 0.00933 µM): 100.18; remaining activity (%) (MMP-2; MMP-2, concentration 0.0466 µM): 86.28; remaining activity (%) (MMP-2; MMP-2, concentration 0.23 µM): 84.03; remaining activity (%) (MMP-2; MMP-2, concentration 5.83 µM): 81.34; remaining activity (%) (MMP-2; MMP-2, concentration 29.14 µM): 67.66; remaining activity (%) (MMP-2; MMP-2, concentration 145.72 µM): 34.11; remaining activity (%) (MMP-2; MMP-2, concentration 728.60 µM): 8.96"
92.81,100.82,101.95,96.31,80.00,52.30,13.62,–,106.93,108.75,91.04,95.05,96.24,69.88,65.10,54.12,–,O=C(CNC(=O)NC12CC3CC(CC(C3)C1)C2)NCCCCCCCCNC(=O)c1cncc(O)c1 [66+828 Linker 4],–
90.03,107.83,106.33,95.98,92.70,85.14,78.29,–,93.33,91.88,89.28,98.93,95.17,89.24,91.48,64.77,–,O=C(CNC(=O)NC12CC3CC(CC(C3)C1)C2)NCc1c[nH]nn1 [66+787 Linker 1],–

# Reference: publication PMC10023787, “Trio-pharmacophore DNA-encoded chemical library for simultaneous selection of fragments and linkers” (Nature Communications, 2023)
